Source: patent US4348393A, “N-Aryl oxazolidinones, oxazolidinethiones, pyrrolidinones, pyrrolidines and thiazolidinones” (Delalande S.A., priority 1978, dated 1982)

What was measured:
[1] = system: generalized trembling caused by dl-5-hydroxytryptophane; assay: Test A: potentiation in mice of generalized trembling caused by dl-5-hydroxytryptophane; format: in vivo; conditions: po, mice, potentiation of trembling by dl-5-hydroxytryptophane 200 mg/kg interperitoneal; for ED50: Mus musculus, read-out: Test A ED 50
Protocol: Test A: Potentiation in mice of generalized trembling caused by an interperitoneal injection (200 mg/kg) of dl-5-hydroxytryptophane, following the protocol described by C. GOURET and G. RAYNAUD in J. Pharmacol. (Paris), (1974), 5, 231.

[2] = system: ptosis observed one hour after reserpine; assay: Test B: antagonism of reserpine-induced ptosis in mice; format: in vivo; conditions: Mus musculus, 1 h, po, antagonism of ptosis one hour after reserpine 2 mg/kg intravenous, read-out: Test B ED 50
Protocol: Test B: Antagonism with respect to the ptosis observed one hour after an intravenous injection (2 mg/kg) of reserpine given to mice, following the protocol described by C.

Row | Compound | ED50 [1] | ED50 [2] | Test A ED 50 [1]
1 | COCC1CN(c2ccc(OCC3CCOCC3)cc2)C(=O)O1 (stereo not shown) [compound 144] | 2.2 mg/kg | 1.1 mg/kg | –
2 | CCCCCCCCC(=O)OCC1CN(c2ccc(OCC3CCCC3)cc2)C(=O)O1 (stereo not shown) [compound 19] | 5.5 mg/kg | 3.5 mg/kg | –
3 | CC(C)OCC1CN(c2ccc(OCc3cccc([N+](=O)[O-])c3)cc2)C(=O)O1 (stereo not shown) [compound 62] | 3.6 mg/kg | 2.4 mg/kg | –
4 | CCCCOc1ccc(N2CC(COC(C)=O)OC2=O)cc1 (stereo not shown) [compound 11] | 4.2 mg/kg | 6.2 mg/kg | –
5 | CC(=O)OCC1CN(c2ccc(OCC3CCCCC3)cc2)C(=O)O1 (stereo not shown) [compound 21] | 2.1 mg/kg | 3.5 mg/kg | –
6 | NCC1CN(c2ccc(OCC3CCCCC3)cc2)C(=O)O1 (stereo not shown) [compound 172] | – | 8.6 mg/kg | –
7 | CNCC1CN(c2ccc(OCc3cccc(Cl)c3)cc2)C(=O)O1 (stereo not shown) [compound 83] | 12.5 mg/kg | 6.2 mg/kg | –
8 | CNCC1CN(c2ccc(OCC3CCCCC3)cc2)C(=O)O1 (stereo not shown) [compound 173] | – | 4.7 mg/kg | –
9 | COCC1CN(c2ccc(OCC3CCCCCC3)cc2)C(=O)O1 (stereo not shown) [compound 150] | 0.7 mg/kg | 0.5 mg/kg | –
10 | N#CCOc1ccc(N2CC(CO)OC2=S)cc1 (stereo not shown) [compound 92] | 30 mg/kg | 50 mg/kg | –
11 | COCC1CN(c2ccc(OCc3ccc(F)c(C#N)c3)cc2)C(=O)O1 (stereo not shown) [compound 162] | 0.54 mg/kg | 1.55 mg/kg | –
12 | CCCCOc1ccc(N2CC(COCCC)OC2=O)cc1 (stereo not shown) [compound 142] | 18 mg/kg | 17.5 mg/kg | –
13 | CC(C)OCC1CN(c2ccc(OCC3CCCC3)cc2)C(=O)O1 (stereo not shown) [compound 50] | 17.5 mg/kg | 15 mg/kg | –
14 | COCC1CN(c2ccc(OCc3cccc(C(F)(F)F)c3)cc2)C(=O)O1 (stereo not shown) [compound 66] | 4.7 mg/kg | 6 mg/kg | –
15 | OCC1CN(c2ccc(OCC3CCOCC3)cc2)C(=S)O1 (stereo not shown) [compound 119] | – | 8 mg/kg | –
16 | CCOc1ccc(N2CC(CO)OC2=S)cc1 (stereo not shown) [compound 87, para ethoxyphenyl-3 hydroxymethyl-5 oxazolidine thione-2] | 29 mg/kg | 44 mg/kg | –
17 | COCC1CN(c2ccc(OCc3cccc(C#N)c3)cc2)C(=S)O1 (stereo not shown) [compound 116] | 1.6 mg/kg | 0.95 mg/kg | –
18 | COCC1CN(c2ccc(OCCCC#N)cc2)C(=O)O1 (stereo not shown) [compound 110] | 0.3 mg/kg | – | –
19 | O=C1OC(COC2CCCCC2)CN1c1ccc(OCc2cccc([N+](=O)[O-])c2)cc1 (stereo not shown) [compound 63] | 9.4 mg/kg | 16.5 mg/kg | –
20 | CCC(=O)OCC1CN(c2ccc(OCC3CCCC3)cc2)C(=O)O1 (stereo not shown) [compound 14] | 2 mg/kg | 3.1 mg/kg | –

Row | Compound | ED50 [1] | ED50 [2] | Test A ED 50 [1]
21 | COCC1CN(c2ccc(OCCC(C)C)cc2)C(=O)O1 (stereo not shown) [compound 111] | 0.28 mg/kg | – | –
22 | CC(C)OCC1CN(c2ccc(OCc3cccc(Cl)c3)cc2)C(=O)O1 (stereo not shown) [compound 60] | 30 mg/kg | – | –
23 | OCC1CN(c2ccc(OCc3cccc(Cl)c3)cc2)C(=S)O1 (stereo not shown) [compound 93] | 9 mg/kg | 6 mg/kg | –
24 | CC(C)C(=O)OCC1CN(c2ccc(OCc3cccc([N+](=O)[O-])c3)cc2)C(=O)O1 (stereo not shown) [compound 38] | 1.5 mg/kg | 2 mg/kg | –
25 | CC(C)C(=O)OCC1CN(c2ccc(OCC3CCCC3)cc2)C(=O)O1 (stereo not shown) [compound 15] | 2.2 mg/kg | 2 mg/kg | –
26 | CCCCC(=O)OCC1CN(c2ccc(OCc3cccc(F)c3)cc2)C(=O)O1 (stereo not shown) [compound 108] | 5.6 mg/kg | – | –
27 | N#CCCOc1ccc(N2CC(COC(=O)c3ccccc3)OC2=O)cc1 (stereo not shown) [compound 10] | 2.4 mg/kg | 5.8 mg/kg | –
28 | CCC(=O)OCC1CN(c2ccc(OCCC#N)cc2)C(=O)O1 (stereo not shown) [compound 4] | 2.3 mg/kg | 3.4 mg/kg | –
29 | CCCCC(=O)OCC1CN(c2ccc(OCC3CCCC3)cc2)C(=O)O1 (stereo not shown) [compound 16] | 1.7 mg/kg | 1.5 mg/kg | –
30 | COCC1CN(c2ccc(OCc3cc(Cl)cc(Cl)c3)cc2)C(=O)O1 (stereo not shown) [compound 166] | 3.8 mg/kg | 3.4 mg/kg | –
31 | CCC(=O)OCC1CN(c2ccc(OCc3cccc(Cl)c3)cc2)C(=O)O1 (stereo not shown) [compound 31] | 6.5 mg/kg | 3.6 mg/kg | –
32 | CCOCC1CN(c2ccc(OCc3cccc([N+](=O)[O-])c3)cc2)C(=O)O1 (stereo not shown) [compound 69] | 0.5 mg/kg | 0.2 mg/kg | –
33 | NCC1CN(c2ccc(OCc3cccc(Cl)c3)cc2)C(=O)O1 (stereo not shown) [compound 82] | 9.6 mg/kg | 12 mg/kg | –
34 | O=C(OCC1CN(c2ccc(OCc3cccc([N+](=O)[O-])c3)cc2)C(=O)O1)c1ccccc1 (stereo not shown) [compound 43] | 15 mg/kg | 17.5 mg/kg | –
35 | CC(C)C(=O)OCC1CN(c2ccc(OCc3cccc(Cl)c3)cc2)C(=O)O1 (stereo not shown) [compound 32] | 4.7 mg/kg | 3.6 mg/kg | –
36 | CCC(=O)OCC1CN(c2ccc(OCC3CCCCC3)cc2)C(=O)O1 (stereo not shown) [compound 22] | – | 3 mg/kg | –
37 | OCC1CN(c2ccc(OCC3=CCCCC3)cc2)C(=S)O1 (stereo not shown) [compound 101] | 18 mg/kg | – | –
38 | CCCCCCCCC(=O)OCC1CN(c2ccc(OCc3ccc(F)cc3)cc2)C(=O)O1 (stereo not shown) [compound 136] | – | 31 mg/kg | –
39 | CCCCCCCCC(=O)OCC1CN(c2ccc(OCc3cc(Cl)cc([N+](=O)[O-])c3)cc2)C(=O)O1 (stereo not shown) [compound 138] | – | 6 mg/kg | –
40 | CCCCC(=O)OCC1CN(c2ccc(OCC3CCCCC3)cc2)C(=O)O1 (stereo not shown) [compound 104] | 6.2 mg/kg | – | –

Row | Compound | ED50 [1] | ED50 [2] | Test A ED 50 [1]
41 | CCC(=O)OCC1CN(c2ccc(OCc3ccc(F)cc3)cc2)C(=O)O1 (stereo not shown) [compound 135] | – | 4.2 mg/kg | –
42 | CCCCCCCCC(=O)OCC1CN(c2ccc(OCCC#N)cc2)C(=O)O1 (stereo not shown) [compound 9] | – | 25 mg/kg | –
43 | COCC1CN(c2ccc(OCC3=CCCCC3)cc2)C(=O)O1 (stereo not shown) [compound 56] | – | 3 mg/kg | –
44 | CN(C)CC1CN(c2ccc(OCC3CCCC3)cc2)C(=O)O1 (stereo not shown) [compound 78] | 6.2 mg/kg | – | –
45 | COCC1CN(c2ccc(OCc3ccc(F)cc3)cc2)C(=O)O1 (stereo not shown) [compound 64] | – | 4.5 mg/kg | –
46 | CCCOCC1CN(c2ccc(OCc3cccc(C#N)c3)cc2)C(=O)O1 (stereo not shown) [compound 160] | – | 4.2 mg/kg | –
47 | CC(C)(C)C(=O)OCC1CN(c2ccc(OCCC#N)cc2)C(=O)O1 (stereo not shown) [compound 7] | – | 7.4 mg/kg | –
48 | CCC(=O)OCC1CN(c2ccc(OCc3cccc(F)c3)cc2)C(=O)O1 (stereo not shown) [compound 106] | – | – | 6.2 mg/kg
49 | CCCCOc1ccc(N2CC(CN(C)C)OC2=O)cc1 (stereo not shown) [compound 75] | 8 mg/kg | – | –
50 | CCC(=O)OCC1CN(c2ccc(OCc3cccc(F)c3)cc2)C(=O)O1 (stereo not shown) [compound 44] | 6.2 mg/kg | – | –
51 | N#CCCOc1ccc(N2CC(CO)OC2=S)cc1 (stereo not shown) [compound 102] | 6.2 mg/kg | – | –
52 | CCC(=O)OCC1CN(c2ccc(OCCC(C)C)cc2)C(=O)O1 (stereo not shown) [compound 124] | – | 0.6 mg/kg | –
53 | CC(C)(C)C(=O)OCC1CN(c2ccc(OCC3CCCCC3)cc2)C(=O)O1 (stereo not shown) [compound 105] | 6.2 mg/kg | – | –
54 | CCC(=O)OCC1CN(c2ccc(OCc3cc(Cl)cc([N+](=O)[O-])c3)cc2)C(=O)O1 (stereo not shown) [compound 137] | – | 6 mg/kg | –
55 | OCC1CN(c2ccc(OCC3CCCC3)cc2)C(=S)O1 (stereo not shown) [compound 100] | 6.2 mg/kg | – | –
56 | CC(C)CC(=O)OCC1CN(c2ccc(OCc3cccc([N+](=O)[O-])c3)cc2)C(=O)O1 (stereo not shown) [compound 134] | – | 3.9 mg/kg | –
57 | CC(C)C(=O)OCC1CN(c2ccc(OCc3cccc(F)c3)cc2)C(=O)O1 (stereo not shown) [compound 107] | – | 12 mg/kg | –
58 | CCCCCOc1ccc(N2CC(COC)OC2=O)cc1 (stereo not shown) [compound 148] | 2.2 mg/kg | – | –
59 | CC(=O)OCC1CN(c2ccc(OCc3cccc(C#N)c3)cc2)C(=S)O1 (stereo not shown) [compound 120] | – | 3 mg/kg | –
60 | CCCCCCOc1ccc(N2CC(COC)OC2=O)cc1 (stereo not shown) [compound 149] | 6 mg/kg | – | –
